From patent US20230013925A1, “Moraxella Treatment Using Cannabinoids” (BOTANIX PHARMACEUTICALLS LIMITED, priority 2019, published 2023)
In brackets after ≈: the same amount, converted by molar mass. Like-named read-outs stand apart in the source and are kept apart here.

System: Moraxella catarrhalis
Experiment: Broth microdilution MIC testing (CLSI)
Assay type: cell-based
Settings: for MIC: read-out: MIC (lowest concentration of drug that inhibited visible growth)
Protocol: In this study, to evaluate the spectrum of activity, cannabidiol (CBD) was profiled against Moraxella. Testing was conducted following guidelines recommended by the Clinical and Laboratory Standards Institute (CLSI, 1-4), using vancomycin, meropenem, levofloxacin, and gentamicin as comparators for testing aerobic bacteria.
Test agents were supplied by Micromyx. Stock solutions of all compounds were prepared on the first day of testing at 101× the highest test concentration using solvents recommended by CLSI. CBD was prepared fresh on each of testing.
Prior to testing, Moraxella were streaked from frozen vials onto Trypticase Soy Agar (TSA) with 5% sheep blood (Becton Dickinson [BD]; Sparks, Md.; Lot No. 9192895), and incubated at 35° C. overnight.
Cation-adjusted Mueller-Hinton broth (CAMHB; BD; Lot No. 8190586) was used for MIC testing.
MIC values were determined using a broth microdilution procedure described by CLSI (1-4). Automated liquid handlers (Multidrop 384, Labsystems, Helsinki, Finland; Biomek 2000 and Biomek FX, Beckman Coulter, Fullerton, Calif.) were used to conduct serial dilutions and liquid transfers.
To prepare the drug mother plates, which would provide the serial drug dilutions for the replicate daughter plates, the wells of columns 2 through 12 of standard 96-well microdilution plates (Costar 3795) were filled with 150 μl of the designated diluent for each row of drug. The test article and comparator compounds (300 μl at 101× the highest concentration to be tested) were dispensed into the appropriate wells in column 1. The Biomek 2000 was then used to make 2-fold serial dilutions in the mother plates from column 1 through column 11. The wells of column 12 contained no drug and served as the organism growth control wells for the assay.
The daughter plates were loaded with 190 μL per well of the appropriate test medium for the tested organism using the Multidrop 384. The daughter plates were completed on the Biomek FX instrument which transferred 2 μL of drug solution from each well of a mother plate to the corresponding well of each daughter plate in a single step.
A standardized inoculum of each test organism was prepared per CLSI methods (1-4). The inoculum for each organism was dispensed into sterile reservoirs divided by length (Beckman Coulter), and the Biomek 2000 was used to inoculate the plates. Daughter plates were placed on the Biomek 2000 work surface in reverse orientation so that inoculation took place from low to high drug concentration. Plates were inoculated with 10 μL of the inoculum resulting in a final cell density of approximately 5×10^5 CFU/mL per well.
The plates for testing of Moraxella were stacked 3 to 4 high, covered with a sterile lid, and incubated at 35° C. for the time periods specified in CLSI (1-4). Plates were incubated for approximately 16 to 20 hr. Following incubation, the microplates were removed from the incubator and viewed from the bottom using a plate viewer. […] The MIC was read and recorded as the lowest concentration of drug that inhibited visible growth of the organism.

[1] = Moraxella catarrhalis isolate MMX 3782, CAMHB, 35° C., approximately 16 to 20 hr

| Compound | MIC [1] [µg/mL] | also measured |
| --- | --- | --- |
| C[C@@H](O)[C@H]1C(=O)N2C(C(=O)O)=C(S[C@@H]3CN[C@H](C(=O)N(C)C)C3)[C@H](C)[C@H]12 [MEM, meropenem] | ≤ 0.03 | – |
| gentamicin | – | MIC (lowest concentration of drug that inhibited visible growth) [1]: 0.25 µg/mL |
| CN[C@H](CC(C)C)C(=O)N[C@H]1C(=O)N[C@@H](CC(N)=O)C(=O)N[C@H]2C(=O)N[C@H]3C(=O)N[C@H](C(=O)N[C@H](C(=O)O)c4cc(O)cc(O)c4-c4cc3ccc4O)[C@H](O)c3ccc(c(Cl)c3)Oc3cc2cc(c3O[C@@H]2O[C@H](CO)[C@@H](O)[C@H](O)[C@H]2O[C@H]2C[C@](C)(N)[C@H](O)[C@H](C)O2)Oc2ccc(cc2Cl)[C@H]1O [VAN, vancomycin] | – | MIC (Moraxella catarrhalis): 32 µg/mL (≈ 22.1 µM) |
| C=C(C)C1CCC(C)=CC1c1c(O)cc(CCCCC)cc1O (centres unmarked) [CBD, 2-[3-methyl-6-(1-methylethenyl)-2-cyclohexen-1-yl]-5-pentyl-1,3-benzenediol] | 1 (≈ 3.18 µM) | – |
| C[C@H]1COc2c(N3CCN(C)CC3)c(F)cc3c(=O)c(C(=O)O)cn1c23 [LVX, levofloxacin] | 0.03 (≈ 0.083 µM) | – |
